In series [1] the test system is Human immunodeficiency virus 1. Kind of series: Antiviral activity against HIV1 harboring reverse transcriptase RES056 double mutant infected in human MT4 cells assessed as protection against virus-induced cytopathic effect after 5 days by MTT assay. It is filed as functional, organism-based. The following applies: Human immunodeficiency virus 1, MT4, 120 h.
For series [2], the system named is Human immunodeficiency virus 1. Kind of series: microbe, parasite or virus in culture. As to conditions: Human immunodeficiency virus 1, 3B, MT4, 120 h.
Description: Antiviral activity against wild type HIV1 3B infected in human MT4 cells assessed as protection against virus-induced cytopathic effect after 5 days by MTT assay
Series [3] deals with Human immunodeficiency virus 1. Put plainly: Antiviral activity against HIV1 harboring reverse transcriptase E138K mutant infected in human MT4 cells assessed as protection against virus-induced cytopathic effect after 5 days by MTT assay. It is filed as functional, organism-based. As to conditions: Human immunodeficiency virus 1, MT4, 120 h. (Cytopathic effects are the visible damage that an infection or toxin causes in cultured cells.)

Series [4] deals with Human immunodeficiency virus type 1 reverse transcriptase (Human immunodeficiency virus 1, UniProt Q72547, K103N/Y181C). Kind of series: Inhibition of HIV1 reverse transcriptase K103N/Y181C double mutant using poly (A)/oligo (dT)15 as template/primer assessed as decrease in biotin-dUTP incorporation after 1 hr by ELISA.
For series [5], the system named is Human immunodeficiency virus 1. Kind of series: Antiviral activity against HIV1 harboring reverse transcriptase Y181C mutant infected in human MT4 cells assessed as protection against virus-induced cytopathic effect after 5 days by MTT assay. Format: functional, organism-based. The following applies: Human immunodeficiency virus 1, MT4, 120 h.
In series [6] the test system is Human immunodeficiency virus 2. Put plainly: Antiviral activity against HIV2 ROD infected in human MT4 cells assessed as protection against virus-induced cytopathic effect after 5 days by MTT assay. As to conditions: Human immunodeficiency virus 2, ISOLATE ROD, MT4, 120 h. It is filed as functional, organism-based.
Series [7] relates to Human immunodeficiency virus 1. Kind of series: Antiviral activity against HIV1 harboring reverse transcriptase K103N mutant infected in human MT4 cells assessed as protection against virus-induced cytopathic effect after 5 days by MTT assay. As to conditions: Human immunodeficiency virus 1, MT4, 120 h. Format: functional, organism-based.
Series [8] concerns the target Human immunodeficiency virus type 1 reverse transcriptase (Human immunodeficiency virus 1, UniProt Q72547). Put plainly: Inhibition of wild type HIV1 reverse transcriptase using poly (A)/oligo (dT)15 as template/primer assessed as decrease in biotin-dUTP incorporation after 1 hr by ELISA. (In general: ELISA stands for enzyme-linked immunosorbent assay.)
The subject of series [9] is Human immunodeficiency virus 1. Put plainly: Antiviral activity against HIV1 harboring reverse transcriptase Y188L mutant infected in human MT4 cells assessed as protection against virus-induced cytopathic effect after 5 days by MTT assay. Format: functional, organism-based. As to conditions: Human immunodeficiency virus 1, MT4, 120 h.
A short description of series [10]: Cytotoxicity against human MT4 cells assessed as reduction in cell viability after 5 days by MTT assay. Format: cell-based.
The subject of series [11] is Human immunodeficiency virus 1. Put plainly: Antiviral activity against HIV1 harboring reverse transcriptase L100I mutant infected in human MT4 cells assessed as protection against virus-induced cytopathic effect after 5 days by MTT assay. As to conditions: Human immunodeficiency virus 1, MT4, 120 h. It is filed as functional, organism-based.
The nature of another series: in vitro. The following applies: human, MT4 cells.
The subject of series [12] is Human immunodeficiency virus 1. Kind of series: Antiviral activity against HIV1 harboring reverse transcriptase F227L/V106A double mutant infected in human MT4 cells assessed as protection against virus-induced cytopathic effect after 5 days by MTT assay. Format: functional, organism-based. The following applies: Human immunodeficiency virus 1, MT4, 120 h.

Description for in vitro: Selectivity index, ratio of CC50 for human MT4 cells to EC50 for wild type HIV1 3B infected in human MT4 cells

One may read the EC50 as the concentration that produces a half-maximal response. By IC50 is commonly meant the concentration at which inhibition is half-maximal. As a reminder, the CC50 is the concentration at which the toxic effect on the cells reaches its halfway point. As to `Cc1cc(/C=C/C#N)cc(C)c1Oc1cc(NCCN(C)C)nc(Nc2ccc(C#N)cc2)n1`, the EC50 in series [1] is 27 nM; in series [2] it was 1.48 nM; in series [3], 41 nM; in series [5], 9 nM; in series [6] it was over 3040 nM; in series [7] it was 2.4 nM. Moreover, the half-maximal effective concentration (EC50) was 900 nM in series [9], 10 nM in [11] and 310 nM in series [12]. Further, the IC50 in [4] was 20 nM; in series [8], 10 nM. Further, the CC50 at 120 h in [10] came out at 3040 nM. Besides, in “in vitro”, the selectivity ratio worked out at 2050.

As to `Cc1cc(/C=C/C#N)cc(C)c1Oc1cc(NCCN2CCNCC2)nc(Nc2ccc(C#N)cc2)n1`, the EC50 in series [1] is 770 nM; in [2], 24.7 nM; in series [3] it was 940 nM; in series [5] it was 610 nM; in series [6] it was over 3650 nM; in series [7] it was 31 nM. Also, the concentration for a half-maximal effect (EC50) in [9] was over 3650 nM; in series [11], 790 nM; in [12], over 3650 nM. The IC50 was determined as 1120 nM in [4] and 440 nM in [8]. The half-maximal cytotoxic concentration (CC50) at 120 h in series [10] was determined as 3650 nM. The selectivity ratio in the series “in vitro” is 148.

With `Cc1cc(/C=C/C#N)cc(C)c1Oc1cc(NCC2CCCO2)nc(Nc2ccc(C#N)cc2)n1` (stereo not drawn), the EC50 was 44400 nM in series [1]; 29 nM in series [2]; 150 nM in series [3]; 6970 nM in [5]; over 268000 nM in series [6]; 91 nM in series [7]. Also, the figures for the half-maximal effective concentration (EC50) in [9], in series [11] and in [12] were over 268000 nM, 2890 nM and 172000 nM, respectively. Besides, the results for the half-inhibitory concentration (IC50) in series [4] and in series [8] were 86900 nM and 440 nM, respectively. Further, in [10], the cytotoxic concentration (CC50) at 120 h is over 268000 nM. In addition, the selectivity ratio in “in vitro” was over 9240.

Regarding `Cc1cc(/C=C/C#N)cc(C)c1Oc1cc(NC2CC2)nc(Nc2ccc(C#N)cc2)n1`, the EC50 in series [1] was 58 nM; in series [2], 2.68 nM; in [3] it was 10 nM; in series [5], 35 nM; in series [6] it was over 3000 nM; in series [7] it was 2.6 nM. Also, the results for the EC50 in series [9], in series [11] and in series [12] were 110 nM, 23 nM and 350 nM, respectively. Further, the concentration for half-maximal inhibition (IC50) came out at 240 nM in series [4] and 50 nM in series [8]. The cytotoxic concentration (CC50) at 120 h in series [10] turned out to be 3000 nM. Also, in the series “in vitro”, the selectivity ratio is 1120.

As to `Cc1cc(/C=C/C#N)cc(C)c1Oc1cc(Cl)nc(Nc2ccc(C#N)cc2)n1`, the EC50 in [1] is 44 nM; in [2] it was 1.69 nM; in series [3], 9.3 nM; in [5], 11 nM; in series [6], over 4310 nM; in [7], 2.4 nM. In addition, the EC50 in [9] is 48 nM; in series [11] it was 8.8 nM; in series [12], 160 nM. In addition, the IC50 in [4] turned out to be 80 nM; in series [8] it was 20 nM. In addition, the CC50 at 120 h in series [10] was 4310 nM. In addition, the selectivity ratio in “in vitro” was determined as 2560.

As for `Cc1cc(/C=C/C#N)cc(C)c1Oc1cc(NCCN2CCOCC2)nc(Nc2ccc(C#N)cc2)n1`, the 50% effective concentration (EC50) in series [1] amounted to 21 nM; in [2], 1.54 nM; in series [3] it was 7.5 nM; in [5], 7.2 nM; in series [6] it was 1420 nM; in [7] it was 1.7 nM. Further, the values for the EC50 in series [9], in [11] and in series [12] were 98 nM, 10 nM and 180 nM, respectively. The IC50 is 340 nM in [4] and 140 nM in series [8]. Moreover, the CC50 at 120 h in series [10] was 3540 nM. In the series “in vitro”, the selectivity ratio was 2310.

The values are drawn from ChEMBL document CHEMBL4219160, “The discovery of novel diarylpyri(mi)dine derivatives with high level activity against a wide variety of HIV-1 strains as well as against HIV-2” (Bioorg Med Chem, 2018).
